Measured values as given in PMC8042013 (Nature Communications, 2021).

biological target: T1, OsCERK1-ECD (Oryza sativa, UniProt A0A0P0XII1); assay: microscale thermophoresis, label-free; type: binding; conditions: 50 mM Tris-HCl pH 7.8, 150 mM NaCl, 10 mM MgCl2, 0.05% Tween-20
T1 construct: gene CERK1; N-terminal gp67 signal peptide for secretion, C-terminal His6; baculovirus, Trichoplusia ni High Five cells; secreted soluble protein
T1 sequence (A0A0P0XII1 19-240 limits assumed): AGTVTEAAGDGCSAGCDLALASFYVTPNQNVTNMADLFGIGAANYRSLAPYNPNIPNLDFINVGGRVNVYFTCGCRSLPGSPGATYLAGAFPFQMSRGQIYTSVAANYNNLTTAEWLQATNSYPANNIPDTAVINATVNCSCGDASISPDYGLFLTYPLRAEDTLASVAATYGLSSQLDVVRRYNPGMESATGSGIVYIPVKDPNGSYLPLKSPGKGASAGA

Q: With `OC[C@H]1O[C@@H](O[C@H]2[C@H](O)[C@@H](O)[C@H](O[C@H]3[C@H](O)[C@@H](O)[C@H](O[C@H]4[C@H](O)[C@@H](CO)OC(O)[C@@H]4O)O[C@@H]3CO)O[C@@H]2CO)[C@H](O)[C@@H](O)[C@@H]1O` (stereo partly drawn) [BGTETB, 3^1-β-D-cellotriosyl-glucose] as the compound, how does the Kd read?
A: 2.9 ± 0.57 µM

Q: How did the Kd turn out when `OC[C@H]1O[C@@H](O[C@@H]2[C@@H](O)[C@H](O[C@H]3[C@H](O)[C@@H](O)C(O)O[C@@H]3CO)O[C@H](CO)[C@H]2O)[C@H](O)[C@@H](O)[C@@H]1O` (stereo partly drawn) [BGTRIA, 3^2-β-D-glucosyl-cellobiose] was run?
A: 4.38 ± 0.58 µM

Q: `OC[C@H]1O[C@@H](O[C@H]2[C@H](O)[C@@H](O)[C@H](O[C@H]3[C@H](O)[C@@H](CO)OC(O)[C@@H]3O)O[C@@H]2CO)[C@H](O)[C@@H](O)[C@@H]1O` (stereo partly drawn) [BGTRIB, 3^1-β-D-cellobiosyl-glucose] was tested. Which Kd did it give?
A: 1.95 ± 0.45 µM

Q: For `OC[C@H]1O[C@@H](O[C@H]2[C@H](O)[C@@H](O)[C@H](O[C@H]3[C@H](O)[C@@H](O)[C@H](O[C@H]4[C@H](O)[C@@H](O)C(O)O[C@@H]4CO)O[C@@H]3CO)O[C@@H]2CO)[C@H](O)[C@@H](O)[C@@H]1O` (some centres unmarked) [CTE, cellotetraose], which Kd is on record?
A: 2.84 ± 0.89 µM

Q: How did the Kd turn out when `OC[C@H]1O[C@@H](O[C@H]2[C@H](O)[C@@H](O)[C@H](O[C@H]3[C@H](O)[C@@H](O)C(O)O[C@@H]3CO)O[C@@H]2CO)[C@H](O)[C@@H](O)[C@@H]1O` (some centres unmarked) [CTR, cellotriose] was run?
A: 4.28 ± 1.67 µM
